The values that follow are results of earlier work, collected in article PMC11406440 (Food and chemical toxicology : an international journal …, 2024).

Read-outs that look alike come from different tables or passages of the source.

In one data set the test system is male rats. To be noted: 3 and 10 mg/kg/d; ref Butenhoff et al., 2009; cited from earlier work.
Another data set concerns mice. The following applies: dermal exposure; ref Weatherly et al., 2021, 2023; cited from earlier work.
The conditions of data set [1]: 5% dermal exposure, same conditions; ref Weatherly et al., 2023; cited from earlier work.
The conditions of data set [2]: ref ATSDR, 2021; cited from earlier work.
The conditions of data set [3]: 4-day dermal exposure, ref Franko et al., 2012, cited from earlier work.
The conditions of data set [4]: ex vivo mouse skin; ref Franko et al., 2012; cited from earlier work.
For data set [5] the following is noted: ex vivo human full-thickness skin; ref Franko et al., 2012; cited from earlier work.
For the next data set, the system named is IgM response to SRBC. To be noted: cited from earlier work.

Consider `O=S(=O)([O-])C(F)(F)C(F)(F)C(F)(F)C(F)(F)C(F)(F)C(F)(F)F.[K+]` [K^+PFHxS, PFHxS potassium salt], for which the Liver weight entry with male rats is listed as “increase”.
For `O=C(O)C(F)(F)C(F)(F)C(F)(F)F` [PFBA, heptafluorobutyric acid], in the data set on mice, the Cholesterol result is reported as “increased” and the Glucose levels result is on record as “increased”.
In the case of `O=C(O)C(F)(F)C(F)(F)C(F)(F)C(F)(F)C(F)(F)C(F)(F)F` [PFHpA, perfluoroheptanoic acid], in data set [1], the Average serum concentration was 137 µg/mL and the Average urine concentration is 1200 µg/mL. In addition, in the data set on mice, the Cholesterol result was “no effect” and the Glucose levels entry is reported as “increased”.
`O=C(O)C(F)(F)C(F)(F)C(F)(F)C(F)(F)C(F)(F)F` [PFHxA, perfluorohexanoic acid]: in data set [1], the Average serum concentration was 4.8 µg/mL and the Average urine concentration is 1700 µg/mL. Besides, in the data set on mice, the Cholesterol result is on record as “no effect” and the Glucose levels entry is recorded as “increased”.
For the compound `O=C(O)C(F)(F)C(F)(F)C(F)(F)C(F)(F)C(F)(F)C(F)(F)C(F)(F)F` [PFOA, perfluorooctanoic acid], the Half-life in humans in data set [2] is given as 2.1–10.1 years. Besides, the entries for the “Serum PFOA level” value in data set [3] (0.5% PFOA) and in data set [3] (2% PFOA) were 152 ± 14 µg/mL and 226 ± 14 µg/mL, respectively. Further, the Total absorbable fraction in data set [4] is listed as 50%; in data set [5], 69%. Besides, the “SRBC IgM antibody titers” value in the data set with IgM response to SRBC (15 days, 3.75–30 mg/kg via drinking water, ref Dewitt et al., 2008) is reported as “reduce”. Further, the “IgM response to SRBC” value in the data set with IgM response to SRBC (dermal exposure, ref Shane et al., 2020) is given as “suppression”.
For the compound `O=C(O)C(F)(F)C(F)(F)C(F)(F)C(F)(F)F` [PFPeA, perfluoropentanoic acid], in the data set with mice, the Cholesterol result is given as “no effect” and the Glucose levels result is listed as “increased”.
